# Source: patent US8556817B2, “Non-invasive methods for determining the cardiovascular status of an individual” (priority 2005, dated 2013)
# Marks after values point to notes of the source that are not given here.
# Legend:
# [1] = Carotid artery wall layer thickness by non-invasive high-frequency ultrasound, postmenopausal estrogen users vs age-matched nonusers; format: in vivo, women
# Procedure: Any artery within the focus depth of the selected measuring equipment that can give information of the separate thicknesses of the artery intima layer and optionally the artery media layer may be used. In one embodiment, the thickness of the artery intima layer and optionally the artery media layer is measured in a superficial artery. Examples of superficial arteries include, but are not limited to, carotid, femoral, radialis, cubital, temporal, popliteal, or dorsalis pedis arteries. Depending on the artery which is selected for measurement, one skilled in the art will appreciate the various non-invasive locations on the individual in which the artery layer thickness may be measured. In one embodiment, the artery is a carotid artery and is examined in front of the sternocleidomastoid muscle, with the individual in the sitting position.
# Before beginning the ultrasound imaging, individuals rest quietly for at least 15 minutes. Carotid total wall thickness and the thickness of the individual artery layers are assessed noninvasively using high-resolution ultrasonographic equipment (Osteoson® Minhorst GmbH, Meudt, Germany), fitted with a broad-banded probe with 25 MHz center frequency. The method is validated for the estimation of total artery wall thickness and media layer thickness in non-atherosclerotic superficial arteries in pigs. Briefly, the scan converter enables the image to be frozen at a selected scan-time (2 sec) and the unit permits two-dimensional data acquisition, presenting the results as scans A and B. About 128 lines of echo data are detected as an A-echo signal, sampled by an eight-bit analog-to-digital converter, converted by scanning to a rectangular format and viewed as B-mode images on a 32-colour scale monitor. Image resolution as defined by the product manual is approximately 0.07 mm axially along the ultrasonographic beam and the depth of focus is in the range of 13.5 to 14.5 mm in front of the tip of the probe. The system recognizes objects of about 0.015 mm in size, and the software-driven cursors permit a minimal digital display of 0.02 mm.
# The left common carotid artery (LCCA) is examined at the point of the strongest pulse, in front of the sternocleidomastoid muscle, with the individuals sitting in an upright position and looking straight ahead. The three-layer image show the pulsating artery near wall and the artery lumen. Ten B scans (point estimates) are carried out and measurements of the thickness of the whole arterial wall and its layers are performed off-line. Means of the ten measurements are calculated and used in the analysis. The total thickness of the carotid wall is measured from the leading edge of the adventitia to the far edge of the intima. Measurements of the adventitia and intima are made using only the brightest echoes from leading edge to far edge, and the thickness of the media layer is measured as the distance between the two brightest echoes. The coefficient of variation (CV %), calculated from double estimates (based on the mean of 5 measurements each) in 20 subjects, is about 2.4% for total carotid wall thickness, about 4.2% for media thickness and about 8% for intima thickness. The values for artery wall layer given in this study are mean values based on 10 or more measurements. All ultrasonographic assessments are performed by the same investigator, who is blinded to the clinical data of the study subjects.
# [2] = Femoral artery wall layer thickness by non-invasive high-frequency ultrasound, postmenopausal estrogen users vs age-matched nonusers; format: in vivo, women
# [3] = estrogen users vs age-matched nonusers
# [4] = estrogen users vs age-matched nonusers, pair-wise
# [5] = postmenopausal estrogen users (n = 17), mean ± SD
substance,measurement,setting,value
Estrogen,"Intima thickness, % difference",[1]; [3],−25%
same,"Intima/Media ratio, % difference",[1]; [3],−54%
same,"Media thickness, % difference",[1]; [3],+74%
same,"Thickness of Intima + Media, % difference",[1]; [3],+43%
same,"Total wall thickness, % difference",[1]; [3],+35%
same,"Intima thickness, Mean difference ± SD",[1]; [4],−0.033 ± 0.04 mm
same,"Intima/Media ratio, Mean difference ± SD",[1]; [4],−0.25 ± 0.15
same,"Media thickness, Mean difference ± SD",[1]; [4],0.26 ± 0.22 mm
same,"Thickness of Intima + Media, Mean difference ± SD",[1]; [4],0.22 ± 0.23 mm
same,"Total wall thickness, Mean difference ± SD",[1]; [4],0.23 ± 0.23 mm
same,Intima thickness,[1]; [5],0.12 ± 0.02 mm
same,Intima/Media ratio,[1]; [5],0.21 ± 0.0629^a
same,Media thickness,[1]; [5],0.61 ± 0.19 mm
same,Thickness of Intima + Media,[1]; [5],0.73 ± 0.19 mm
same,Total wall thickness,[1]; [5],0.84 ± 0.19 mm
same,"Intima thickness, % difference",[2]; [3],−23%
same,"Intima/Media ratio, % difference",[2]; [3],−50%
same,"Media thickness, % difference",[2]; [3],+51%
same,"Thickness of Intima + Media, % difference",[2]; [3],+38%
same,"Total wall thickness, % difference",[2]; [3],+25%
same,"Intima thickness, Mean difference ± SD",[2]; [4],−0.030 ± 0.04 mm
same,"Intima/Media ratio, Mean difference ± SD",[2]; [4],−0.14 ± 0.13
same,"Media thickness, Mean difference ± SD",[2]; [4],0.27 ± 0.30 mm
same,"Thickness of Intima + Media, Mean difference ± SD",[2]; [4],0.24 ± 0.33 mm
same,"Total wall thickness, Mean difference ± SD",[2]; [4],0.18 ± 0.40 mm
same,Intima thickness,[2]; [5],0.095 ± 0.02 mm
same,Intima/Media ratio,[2]; [5],0.14 ± 0.06^0.055
same,Media thickness,[2]; [5],0.77 ± 0.29^a mm
same,Thickness of Intima + Media,[2]; [5],0.87 ± 0.30^a mm
same,Total wall thickness,[2]; [5],0.91 ± 0.37^b mm
